Data set [1] relates to LAD2. Description: Cytotoxicity against human LAD2 cells assessed as reduction in cell viability at 10 uM incubated for 24 hrs by Cell Counting Kit assay. The data set is classed as toxicity, cell-based. Conditions: lad2, 24 h.
The subject of data set [2] is LAD2. Description: Anti-pseudo allergic activity in human LAD2 cells assessed as inhibition of C48/80-induced beta-hexosaminidase release at 0.1 to 10 uM pretreated for 30 mins followed by C48/80 addition measured after 30 mins. The data set is classed as functional, cell-based. Conditions: dose 0.1-10 µM, time 1.0 hrs.
In data set [3] the test system is LAD2. Put plainly: Anti-pseudo allergic activity in human LAD2 cells assessed as inhibition of C48/80-induced beta-hexosaminidase release. The data set is classed as functional, cell-based.
The subject of data set [4] is LAD2. Put plainly: Anti-pseudo allergic activity in human LAD2 cells assessed as inhibition of C48/80-induced histamine release at 0.1 to 10 uM pretreated for 30 mins followed by C48/80 addition measured after 30 mins by HPLC-MS analysis. The data set is classed as functional, cell-based. To be noted: dose 0.1-10 µM.
The test system of data set [5] is LAD2. Description: Anti-pseudo allergic activity in human LAD2 cells assessed as decrease in C48/80-induced calcium intracellular mobilization at 10 uM by fluorescence based assay. The data set is classed as functional, cell-based.
Data set [6] concerns Mus musculus. Description: Anti-pseudo allergic activity against C48/80-induced passive cutaneous anaphylaxis mouse model assessed as body temperature loss at 10 mg/kg followed by C48/80 administration intravenously after 30 mins post-compound administration measured every 5 mins for 30 mins. It counts as functional, organism-based. Conditions: route iv, time 1.0 hrs.
In data set [7] the test system is Mus musculus. Put plainly: Anti-pseudo allergic activity against C48/80-induced passive cutaneous anaphylaxis mouse model assessed as reduction in serum histamine level at 1 to 10 mg/kg followed by C48/80 administration intravenously after 30 mins post-compound administration measured every 5 mins for 30 mins by LC/MS/MS analysis. Conditions: dose 1-10 mg/kg, route iv. It counts as functional, organism-based.

Data set [8] concerns Mus musculus. Put plainly: Anti-pseudo allergic activity against C48/80-induced passive cutaneous anaphylaxis mouse model assessed as increase in local tissue edema vascular permeability at 1 to 10 mg/kg followed by C48/80 administration after 30 mins post-compound administration measured every 5 mins for 30 mins. It counts as functional, organism-based. To be noted: dose 1-10 mg/kg.

The test system of data set [9] is Mus musculus. Description: Anti-pseudo allergic activity against C48/80-induced passive cutaneous anaphylaxis C57 mouse model assessed as reduction in paw thickness rate at 0 to 1 mg/kg followed by C48/80 intravenously administration after 15 mins by Evans blue method. It counts as functional, organism-based. To be noted: dose 0-1 mg/kg, route iv.
Data set [10] has as its system Mus musculus. Put plainly: Anti-pseudo allergic activity against C48/80-induced passive cutaneous anaphylaxis mouse model assessed as decrease in degranulation level at 0 to 1 mg/kg followed by C48/80 addition measured after 45 mins by FITC-avidin staining based laser scanning confocal microscopy. The data set is classed as functional, organism-based. To be noted: dose 0-1 mg/kg.

Data set [11] concerns the target T1, Mas-related G-protein coupled receptor member X2 (Homo sapiens) (UniProt Q96LB1).
T1 sequence (whole entry): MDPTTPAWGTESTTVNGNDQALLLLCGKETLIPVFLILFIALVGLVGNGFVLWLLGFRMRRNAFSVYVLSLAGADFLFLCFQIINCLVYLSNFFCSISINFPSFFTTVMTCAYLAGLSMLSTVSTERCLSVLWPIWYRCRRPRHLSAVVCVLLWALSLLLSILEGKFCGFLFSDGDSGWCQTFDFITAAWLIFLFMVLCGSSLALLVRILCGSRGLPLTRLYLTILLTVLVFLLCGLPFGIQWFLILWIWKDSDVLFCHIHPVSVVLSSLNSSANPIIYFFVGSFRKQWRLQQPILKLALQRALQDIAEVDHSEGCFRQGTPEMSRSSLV
Description: Antagonist activity at MRGPRX2 (unknown origin) expressed in HEK293 cells assessed as inhibition of calcium mobilization at upto 10 uM. The data set is classed as functional, cell-based. To be noted: filed as antagonist.

Data set [12] has as its system HEK293. Put plainly: Anti-pseudo allergic activity in HEK293 cells expressing H1R assessed as inhibition of histamine induced calcium release at 0 to 10 uM. It counts as functional, cell-based. Conditions: Homo sapiens, dose 0-10 µM.
The subject of data set [13] is HEK293. Description: Anti-pseudo allergic activity in HEK293 cells assessed as prevention of calcium entry in presence of emodin at 0 to 10 uM. It counts as functional, cell-based. Conditions: Homo sapiens, dose 0-10 µM.
For data set [14], the system named is Mus musculus. Description: Anti-pseudo allergic activity against passive cutaneous anaphylaxis-induced mouse model assessed as systemic symptoms at 1 to 10 mg/kg followed by C48/80 administration after 30 mins post-compound administration measured every 5 mins for 30 mins. It counts as functional, organism-based. Conditions: dose 1-10 mg/kg.
In data set [15] the test system is Mus musculus. Put plainly: Anti-pseudo allergic activity against passive cutaneous anaphylaxis-induced C57 mouse model assessed as reduction in C48/80-induced extravasation rate at 0 to 1 mg/kg followed by C48/80 intravenously administration after 15 mins by Evans blue method. The data set is classed as functional, organism-based. Conditions: dose 0-1 mg/kg, route iv.

The structures appear in SMILES notation. The source made the active and inactive calls. No cut-off for these calls is given here.

With `O=C(Nc1ccc(F)cc1)Nc1ccc(F)cc1`, the Activity entry with LAD2 [1] was “Non-Toxic”.
`O=C(Nc1ccc(F)cc1)Nc1cc(Br)cc(C(F)(F)F)c1`: the Activity entry in the data set with LAD2 [1] is listed as “Non-Toxic”.
On to `O=C(Nc1ccc(Br)cc1)Nc1ccc(C(F)(F)F)cc1Cl`, for which the Activity result in the data set on LAD2 [1] was “Non-Toxic”. In the data set on LAD2 [2], the result was Active. In addition, the half-maximal inhibitory concentration (IC50) (in general, the concentration at which inhibition is half-maximal) in the data set with LAD2 [3] was 2510 nM. Besides, the inhibition result in the data set on LAD2 [4] is “Active”.
For `O=C(Nc1ccc(Br)cc1)Nc1ccc(Br)cc1`, the Activity entry in the data set with LAD2 [1] is listed as “Non-Toxic”.
Turning to `O=C(Nc1ccc(C(F)(F)F)cc1)Nc1cc(Br)cc(C(F)(F)F)c1`, the Activity entry in the data set on LAD2 [1] was “Non-Toxic”. Also, the outcome with LAD2 [2], in the data set with LAD2 [5], in the data set with Mus musculus [6], in the data set with Mus musculus [7], in the data set with Mus musculus [8] and with Mus musculus [9] was Active. The result (in the data set with Mus musculus [10]; in data set [11]; in the data set on HEK293 [12]; in the data set with HEK293 [13]; with Mus musculus [14]; in the data set on Mus musculus [15]) was Active. Also, the IC50 in the data set on LAD2 [3] is 620 nM. The inhibition result with LAD2 [4] is “Active”.
For the compound `O=C(Nc1ccc(C(F)(F)F)cc1)Nc1ccc(C(F)(F)F)cc1`, the Activity result with LAD2 [1] was “Non-Toxic”. Moreover, the outcome with LAD2 [2], in the data set with LAD2 [5], in the data set with Mus musculus [6], with Mus musculus [7], in the data set on Mus musculus [8] and in the data set with Mus musculus [9] was Active. In addition, the outcome (in the data set on Mus musculus [10]; in data set [11]; with HEK293 [12]; in the data set on HEK293 [13]; in the data set with Mus musculus [14]; in the data set on Mus musculus [15]) was Active. Moreover, the IC50 with LAD2 [3] turned out to be 970 nM. Further, the inhibition entry with LAD2 [4] was “Active”.
For the compound `O=C(Nc1ccc(F)cc1)Nc1ccc(C(F)(F)F)cc1`, the Activity result in the data set on LAD2 [1] is on record as “Non-Toxic”. The outcome with LAD2 [2] was Active. Besides, the half-inhibitory concentration (IC50) in the data set with LAD2 [3] is 1640 nM. Also, the inhibition entry in the data set with LAD2 [4] is “Active”.
Take `O=C(Nc1ccc(Cl)c(C(F)(F)F)c1)Nc1ccc(Cl)c(C(F)(F)F)c1`: in the data set with LAD2 [1], the Activity result is “Non-Toxic”. Moreover, the outcome in the data set with LAD2 [2], in the data set on LAD2 [5], in the data set with Mus musculus [6], with Mus musculus [7], in the data set on Mus musculus [8] and in the data set with Mus musculus [9] was Active. Moreover, the result (in the data set with Mus musculus [10]; in data set [11]; with HEK293 [12]; in the data set on HEK293 [13]; with Mus musculus [14]; with Mus musculus [15]) was Active. Also, in the data set on LAD2 [3], the IC50 is 790 nM. For the same compound, the inhibition entry in the data set on LAD2 [4] is “Active”.
For the compound `O=C(Nc1ccc(F)cc1)Nc1ccc(C(F)(F)F)cc1Cl`, in the data set on LAD2 [1], the Activity entry was “Non-Toxic”. Further, the result in the data set on LAD2 [2] was Active. In the data set with LAD2 [3], the IC50 was 1400 nM. Further, the inhibition entry in the data set on LAD2 [4] is “Active”.
Turning to `O=C(Nc1ccc(C(F)(F)F)cc1Cl)Nc1ccc(C(F)(F)F)cc1Cl`, the Activity entry in the data set on LAD2 [1] is reported as “Non-Toxic”. Moreover, the outcome with LAD2 [2] was Active. Further, the half-inhibitory concentration (IC50) in the data set with LAD2 [3] is 2160 nM. Besides, the inhibition entry in the data set with LAD2 [4] was “Active”.
On to `O=C(Nc1ccc(C(F)(F)F)cc1)Nc1ccc(C(F)(F)F)cc1Cl`, for which the Activity result in the data set with LAD2 [1] is listed as “Non-Toxic”. The outcome in the data set with LAD2 [2] was Active. Also, the IC50 in the data set with LAD2 [3] is 800 nM. Also, in the data set with LAD2 [4], the inhibition entry is “Active”.
With `O=C(Nc1ccc(Cl)c(C(F)(F)F)c1)Nc1ccc(C(F)(F)F)cc1Cl`, in the data set on LAD2 [2], the outcome was Active. For the same compound, in the data set on LAD2 [3], the IC50 came out at 1100 nM. Besides, in the data set on LAD2 [4], the inhibition result is “Active”.
For the compound `O=C(Nc1cccc(C(F)(F)F)c1)Nc1cccc(C(F)(F)F)c1`, the Activity result with LAD2 [1] is “Non-Toxic”. Moreover, the outcome in the data set on LAD2 [2] was Active. Also, the IC50 in the data set on LAD2 [3] amounted to 1590 nM. Also, the inhibition entry with LAD2 [4] was “Active”.
